These results are taken from paper PMC6827283, “A Na^+ leak channel cloned from Trichoplax adhaerens extends extracellular pH and Ca^2+ sensing for the DEG/ENaC family close to the base of Metazoa” (The Journal of Biological Chemistry, 2019).

The target of assay [1] is T1, TadNaC6 (Trichoplax adhaerens, UniProt A0A5J6BVG3).
T1 construct: gene ASIC6; full-length untagged channel from pTadNaC6-IR-EGFP (pIRES2-EGFP, EGFP expressed separately) in CHO-K1 cells; functional homomer, trimer by homology; cloning primers encode N-terminus MMAKGKIDH and C-terminus ADATNPDM-stop
T1 sequence (A0A5J6BVG3 1-492): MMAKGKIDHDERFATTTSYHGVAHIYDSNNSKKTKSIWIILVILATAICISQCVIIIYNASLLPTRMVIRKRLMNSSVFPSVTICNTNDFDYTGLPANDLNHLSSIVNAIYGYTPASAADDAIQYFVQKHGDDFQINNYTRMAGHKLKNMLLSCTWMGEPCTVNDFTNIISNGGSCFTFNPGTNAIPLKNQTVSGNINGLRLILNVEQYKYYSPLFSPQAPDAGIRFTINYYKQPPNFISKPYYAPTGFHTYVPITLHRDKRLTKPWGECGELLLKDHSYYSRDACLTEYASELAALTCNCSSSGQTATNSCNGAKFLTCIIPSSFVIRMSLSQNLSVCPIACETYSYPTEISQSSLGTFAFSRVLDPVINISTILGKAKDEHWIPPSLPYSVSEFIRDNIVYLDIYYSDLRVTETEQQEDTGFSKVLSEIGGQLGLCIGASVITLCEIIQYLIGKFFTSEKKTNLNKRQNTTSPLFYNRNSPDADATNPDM
The assay can be described thus: whole-cell patch clamp, CHO-K1 cells. Type of assay: cell-based. Particulars: agonist (activation); perfusion from pH 5 to pH 7.5 (figure legend pH 7.4); 10 μM to 3 mM tested; no EC50. For orientation: In patch-clamp work, channel activity is measured electrically.

Assay [2] addresses T1, TadNaC6. The assay can be described thus: whole-cell patch clamp, CHO-K1 cells. In kind it is cell-based.

`N=C(N)NC(=O)c1nc(Cl)c(N)nc1N` [amiloride]: the “fold current at 3 mM relative to pH 9 without amiloride” value at TadNaC6 [1] is ~ 12 fold. As for `N=C(N)c1ccc(/N=N/Nc2ccc(C(=N)N)cc2)cc1` [diminazene], the IC50 against TadNaC6 [2] came to 578 ± 69.4 µM.

A word on the IC50: it is the midpoint of a concentration-inhibition curve. A higher IC50 goes with a need for much substance.
